From patent publication US20020065227A1, “Charged compounds comprising a nucleic acid binding moiety and uses therefor” (priority 2000, published 2002)
Values after ≈ are worked out from the molar mass of the structure shown.

Key:
Bacillus cereus (11778) = experiment: MIC, NCCLS broth microdilution; type: cell-based
Esherichia coli (25922) = experiment: MIC, NCCLS broth microdilution; type: cell-based, Escherichia coli; settings: Escherichia coli (25922)
[1] = system: Staphylococcus aureus (29213); experiment: MIC, NCCLS broth microdilution; type: cell-based; settings: Staphylococcus aureus (29213)
[2] = system: Candida albicans (38247) (Polyene resistant); experiment: MIC, antifungal assay; type: cell-based
[3] = system: Streptococcus pneumoniae (49619); experiment: MIC, NCCLS broth microdilution; type: cell-based; settings: Streptococcus pneumoniae (49619)
[4] = system: Streptococcus pyogenes (49339); experiment: MIC, NCCLS broth microdilution; type: cell-based; settings: Streptococcus pyogenes (49339); Table Ia: Streptococcus Group A(49339)
[5] = system: Enterococcus faecalis (29212); experiment: MIC, NCCLS broth microdilution; type: cell-based; settings: Enterococcus faecalis (29212)
[6] = system: Staphylococcus aureus (33591) (methicillin resistant); experiment: MIC, NCCLS broth microdilution; type: cell-based; settings: Staphylococcus aureus (33591), methicillin resistant (MRSA)
[7] = system: Staphylococcus epidermidis (12228); experiment: MIC, NCCLS broth microdilution; type: cell-based; settings: Staphylococcus epidermidis (12228)
[8] = system: Streptococcus pneumoniae (51422) (multiple drug resistant); experiment: MIC, NCCLS broth microdilution; type: cell-based
[9] = system: Corynebacterium Group A (49676); experiment: MIC, NCCLS broth microdilution; type: cell-based; settings: Corynebacterium Group A (49676)
Micrococcus luteus (381) = experiment: MIC, NCCLS broth microdilution; type: cell-based
[10] = system: Pseudomona aeruginosa (27853); experiment: MIC, NCCLS broth microdilution; type: cell-based; settings: Pseudomona aeruginosa (27853)
[11] = system: Enterococcus faecium (51559) (vacomycin resistant); experiment: MIC, NCCLS broth microdilution; type: cell-based; settings: Enterococcus faecium (51559), vancomycin resistant
[12] = system: Candida parapsilosis (10232); experiment: MIC, antifungal assay; type: cell-based; settings: Candida parapsilosis (10232)
[13] = system: Cryptococcus neoformans (90112); experiment: MIC, antifungal assay; type: cell-based; settings: Cryptococcus neoformans (90112)
Candida albicans (90028) = experiment: MIC, antifungal assay; type: cell-based
[14] = system: Haemophilus influenzae (49247); experiment: MIC, NCCLS broth microdilution; type: cell-based; settings: Haemophilus influenzae (49247)
AGTACT = experiment: DNase I footprint titration, AGTACT site; type: binding; settings: equilibrium association constant Ka; pH 7.0, 22° C.
ATTACT = experiment: DNase I footprint titration, ATTACT site; type: binding; settings: equilibrium association constant Ka; pH 7.0, 22° C.
ACTACT = experiment: DNase I footprint titration, ACTACT site; type: binding; settings: equilibrium association constant Ka; pH 7.0, 22° C.
AATACT = experiment: DNase I footprint titration, AATACT site; type: binding; settings: equilibrium association constant Ka; pH 7.0, 22° C.

CN=C(N)CCNC(=O)c1cc(NC(=O)c2cc(NC(=O)c3cc(NC(=O)c4nsc(Cl)c4Cl)cn3C)cn2C)cn1C [V-pp]
MIC (Bacillus cereus (11778); Bacillus cereus (11778)): 0.5 µg/mL (≈ 0.772 µM)
MIC (Esherichia coli (25922)): 32 µg/mL (≈ 49.4 µM)
MIC [1]: 0.5 µg/mL (≈ 0.772 µM)
MIC [2]: 4 µg/mL (≈ 6.18 µM)

CN(C)CCCNC(=O)c1cc(NC(=O)c2cc(NC(=O)c3cc(NC(=O)c4nsc(NCCCN(C)C)c4Cl)cn3C)cn2C)cn1C [V-q]
MIC (Bacillus cereus (11778); Bacillus cereus (11778)): 4 to 8 µg/mL
MIC (Esherichia coli (25922)): >128 µg/mL
MIC [1]: 8 to 16 µg/mL
MIC [3]: 2 µg/mL (≈ 2.8 µM)
MIC [4]: 1 µg/mL (≈ 1.4 µM)
MIC [5]: 1 µg/mL (≈ 1.4 µM)
MIC [6]: 16 µg/mL (≈ 22.4 µM)
MIC [7]: 4 µg/mL (≈ 5.6 µM)
MIC [8]: 4 µg/mL (≈ 5.6 µM)
MIC [9]: 1 µg/mL (≈ 1.4 µM)
MIC (Micrococcus luteus (381)): 8 µg/mL (≈ 11.2 µM)
MIC [10]: >128 µg/mL
MIC [11]: 4 µg/mL (≈ 5.6 µM)

Cn1cc(NC(=O)c2cc(NC(=O)c3cc(NC(=O)c4nsc(NCCN)c4Cl)cn3C)cn2C)cc1C(=O)NCCC1=NCCN1 [V-qq]
MIC (Bacillus cereus (11778); Bacillus cereus (11778)): 0.25 µg/mL (≈ 0.366 µM)
MIC (Esherichia coli (25922)): 32 µg/mL (≈ 46.8 µM)
MIC [1]: 0.25 µg/mL (≈ 0.366 µM)
MIC [2]: 32 µg/mL (≈ 46.8 µM)

CCN(CC)CCNC(=O)CCNC(=O)c1cc(NC(=O)c2cc(NC(=O)c3nsc(NCCN(CC)CC)c3Cl)cn2C)cn1C [V-r]
MIC (Bacillus cereus (11778); Bacillus cereus (11778)): >128 µg/mL
MIC (Esherichia coli (25922)): >128 µg/mL
MIC [12]: 2 µg/mL (≈ 2.89 µM)
MIC [1]: >128 µg/mL
MIC [3]: 16 µg/mL (≈ 23.1 µM)
MIC [5]: 16 µg/mL (≈ 23.1 µM)
MIC [13]: 16 µg/mL (≈ 23.1 µM)
MIC (Candida albicans (90028)): >128 µg/mL
MIC [2]: >128 µg/mL
MIC [14]: >128 µg/mL

COCCCNc1snc(C(=O)Nc2cc(C(=O)Nc3cc(C(=O)Nc4cc(C(=O)NCCN5CCOCC5)n(C)c4)n(C)c3)n(C)c2)c1Cl [V-rr]
MIC (Bacillus cereus (11778); Bacillus cereus (11778)): 0.5 µg/mL (≈ 0.686 µM)
MIC (Esherichia coli (25922)): 32 µg/mL (≈ 43.9 µM)
MIC [1]: 1 µg/mL (≈ 1.37 µM)
MIC [2]: 32 µg/mL (≈ 43.9 µM)

Cn1cc(NC(=O)c2cc(NC(=O)c3cc(NC(=O)c4nsc(NCC5CC5)c4Cl)cn3C)cn2C)cc1C(=O)NCCN1CCOCC1 [V-tt]
MIC (Bacillus cereus (11778); Bacillus cereus (11778)): 0.25 µg/mL (≈ 0.351 µM)
MIC (Esherichia coli (25922)): 32 µg/mL (≈ 45 µM)
MIC [1]: 0.5 µg/mL (≈ 0.703 µM)
MIC [2]: 32 µg/mL (≈ 45 µM)

CN(C)CCCNC(=O)CCNC(=O)c1cc(NC(=O)c2cc(NC(=O)c3cc(NC(=O)c4nsc(Cl)c4Cl)cn3C)cn2C)cn1C [V-u]
Binding Constant, sequence AGTACT (AGTACT): 1e+11 M⁻¹
Binding Constant, sequence ATTACT (ATTACT): 5e+08 M⁻¹
Binding Constant, sequence ACTACT (ACTACT): 1e+09 M⁻¹
Binding Constant, sequence AATACT (AATACT): 1e+08 M⁻¹

Cn1cc(NC(=O)c2cc(NC(=O)c3cc(NC(=O)c4nsc(Cl)c4Cl)cn3C)cn2C)cc1C(=O)NCCC1=NCCN1 [V-uu]
MIC (Bacillus cereus (11778); Bacillus cereus (11778)): 1 µg/mL (≈ 1.52 µM)
MIC [1]: 0.25 µg/mL (≈ 0.379 µM)

CN(C)CCCNC(=O)c1cc(NC(=O)c2cc(NC(=O)c3cc(NC(=O)c4nsc(N5CCCCC5)c4Cl)cn3C)cn2C)cn1C [V-w]
MIC (Bacillus cereus (11778); Bacillus cereus, strain not stated): 0.5 µg/mL (≈ 0.717 µM)

CN(C)CCCNC(=O)CCNC(=O)c1cc(NC(=O)c2cc(NC(=O)c3cc(NC(=O)c4nc(NC(=O)CCCNC(=O)c5cc(NC(=O)c6cc(NC(=O)c7cc(NC(=O)c8nsc(Cl)c8Cl)cn7C)cn6C)cn5C)cn4C)cn3C)cn2C)cn1C [VI-a]
Binding Constant, sequence AGTACT (AGTACT): 2e+10 M⁻¹
Binding Constant, sequence ATTACT (ATTACT): 2e+09 M⁻¹
Binding Constant, sequence ACTACT (ACTACT): 2e+09 M⁻¹
Binding Constant, sequence AATACT (AATACT): 2e+09 M⁻¹

CN(C)CCCNC(=O)CCNC(=O)c1cc(NC(=O)c2cc(NC(=O)c3cc(NC(=O)c4nc(NC(=O)CCCNC(=O)c5cc(NC(=O)c6cc(NC(=O)c7cc(NC(=O)c8nsc(NCCCN(C)C)c8Cl)cn7C)cn6C)cn5C)cn4C)cn3C)cn2C)cn1C [VI-b]
Binding Constant, sequence AGTACT (AGTACT): 1e+11 M⁻¹
Binding Constant, sequence ATTACT (ATTACT): 7e+09 M⁻¹
Binding Constant, sequence ACTACT (ACTACT): 7e+09 M⁻¹
Binding Constant, sequence AATACT (AATACT): 7e+09 M⁻¹
